In PubChem BioAssay AID248 (DTP/NCI, 2004):
Where “and” joins values, the source holds several entries; their conditions need not be identical. Equal entries are not always repeated. Toxic doses and inconclusive results are not listed. Rule as the data show it: active = T/C of 150% or more; inactive = T/C below 125%.

System: L1210 leukemia ip in BDF1 mice, survival T/C
Experiment: NCI In Vivo Anticancer Drug Screen. Data for tumor model L1210 Leukemia (intraperitoneal) in B6D2F1 (BDF1) mice
Conditions: endpoint: mean survival time, higher = longer survival
Procedure, shortened: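 Ratio derived from survival: compound-dosed mice over vehicle-dosed mice, all bearing a transplantable tumor.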

[1] = dose: 100.0 mg/kg/injection, schedule: Q01DX009 (ip), vehicle: Klucel (hydroxypropylcellulose) (HPC)
[2] = dose: 200.0 mg/kg/injection, schedule: Q01DX009 (ip), vehicle: Klucel (hydroxypropylcellulose) (HPC)
[3] = dose: 400.0 mg/kg/injection, schedule: Q01DX009 (ip), vehicle: Klucel (hydroxypropylcellulose) (HPC)
[4] = dose: 100.0 mg/kg/injection, schedule: Q01DX009 (ip), vehicle: saline with Tween-80
[5] = dose: 100.0 mg/kg/injection, schedule: Q04DX003 (ip), vehicle: saline
[6] = dose: 200.0 mg/kg/injection, schedule: Q01DX009 (ip), vehicle: saline with Tween-80
[7] = dose: 200.0 mg/kg/injection, schedule: Q04DX003 (ip), vehicle: saline
[8] = dose: 400.0 mg/kg/injection, schedule: Q01DX009 (ip), vehicle: saline with Tween-80
[9] = dose: 400.0 mg/kg/injection, schedule: Q04DX003 (ip), vehicle: saline
[10] = dose: 100.0 mg/kg/injection, schedule: Q04DX002 (ip), vehicle: saline with Tween-80
[11] = dose: 200.0 mg/kg/injection, schedule: Q04DX002 (ip), vehicle: saline with Tween-80
[12] = dose: 100.0 mg/kg/injection, schedule: Q04DX003 (ip), vehicle: Klucel (hydroxypropylcellulose) (HPC)
[13] = dose: 200.0 mg/kg/injection, schedule: Q04DX003 (ip), vehicle: Klucel (hydroxypropylcellulose) (HPC)
[14] = dose: 400.0 mg/kg/injection, schedule: Q04DX003 (ip), vehicle: Klucel (hydroxypropylcellulose) (HPC)
[15] = dose: 100.0 mg/kg/injection, schedule: Q01DX001 (ip), vehicle: saline
[16] = dose: 200.0 mg/kg/injection, schedule: Q01DX001 (ip), vehicle: saline
[17] = dose: 400.0 mg/kg/injection, schedule: Q01DX001 (ip), vehicle: saline
[18] = dose: 100.0 mg/kg/injection, schedule: Q04DX002 (ip), vehicle: Klucel (hydroxypropylcellulose) (HPC)
[19] = dose: 200.0 mg/kg/injection, schedule: Q04DX002 (ip), vehicle: Klucel (hydroxypropylcellulose) (HPC)
[20] = dose: 400.0 mg/kg/injection, schedule: Q04DX002 (ip), vehicle: Klucel (hydroxypropylcellulose) (HPC)
[21] = dose: 100.0 mg/kg/injection, schedule: Q04DX003 (ip), vehicle: saline with Tween-80
[22] = dose: 200.0 mg/kg/injection, schedule: Q04DX003 (ip), vehicle: saline with Tween-80
[23] = dose: 400.0 mg/kg/injection, schedule: Q04DX003 (ip), vehicle: saline with Tween-80
[24] = dose: 50.0 mg/kg/injection, schedule: Q01DX001 (ip), vehicle: saline

Measured: T/C

CC(=O)n1cc(/C=C2\N=C(c3ccccc3)OC2=O)c2ccccc21
inactive: [1] 94 % of control | [2] 96 % of control | [3] 94 % of control

Nc1ncnc(N)c1NC(=O)c1cc(Br)c(OCc2ccccc2)c(Br)c1
inactive: dose: 100.0 mg/kg/injection, schedule: Q01DX001 (ip), vehicle: DMSO 95 % of control | dose: 200.0 mg/kg/injection, schedule: Q01DX001 (ip), vehicle: DMSO 95 % of control | dose: 400.0 mg/kg/injection, schedule: Q01DX001 (ip), vehicle: DMSO 95 % of control

C1CCCC(=NN=C2CCCCCCC2)CCC1
inactive: [4] 89 % of control | [5] 95 % of control | [6] 93 % of control | [7] 89 % of control | [8] 89 % of control | [9] 95 % of control

CN(C)[C](=O)[Pb]([c]1ccccc1)([c]1ccccc1)[c]1ccccc1
inactive: [10] 98 % of control | [11] 98 % of control

CC(=O)OC1CC2C(C(=O)O)C2C1OC(C)=O (stereo not drawn)
inactive: dose: 100.0 mg/kg/injection, schedule: Q01DX001 (ip), vehicle: saline with Tween-80 104 % of control | dose: 200.0 mg/kg/injection, schedule: Q01DX001 (ip), vehicle: saline with Tween-80 92 % of control | dose: 400.0 mg/kg/injection, schedule: Q01DX001 (ip), vehicle: saline with Tween-80 95 % of control

Cc1ccc(C(=O)/C=C\c2ccc(Cl)cc2Cl)cc1
inactive: [12] 92 % of control | [13] 100 % of control | [14] 92 % of control

O=Cc1[nH]c(=S)[nH]c(=O)c1Cc1ccc(Cl)cc1
inactive: [15] 96 % of control | [16] 93 % of control | [17] 96 % of control

CCCC(O)CN (stereo not drawn)
inactive: dose: 50.0 mg/kg/injection, schedule: Q01DX001 (ip), vehicle: carboxymethylcellulose (CMC) 98 % of control | dose: 100.0 mg/kg/injection, schedule: Q01DX001 (ip), vehicle: carboxymethylcellulose (CMC) 102 % of control | dose: 200.0 mg/kg/injection, schedule: Q01DX001 (ip), vehicle: carboxymethylcellulose (CMC) 104 % of control | dose: 400.0 mg/kg/injection, schedule: Q01DX001 (ip), vehicle: carboxymethylcellulose (CMC) 116 % of control

O=C(O)COc1cccc2ccc(Cl)cc12
inactive: [18] 101 % of control | [19] 90 % of control | [20] 96 % of control

O=C(O)C12CCC(CCC1O)C2 (stereo not drawn)
inactive: dose: 75.0 mg/kg/injection, schedule: Q01DX001 (ip), vehicle: other 102 % of control | dose: 150.0 mg/kg/injection, schedule: Q01DX001 (ip), vehicle: other 100 % of control | dose: 300.0 mg/kg/injection, schedule: Q01DX001 (ip), vehicle: other 100 % of control

CCOC(Cn1ccc(=O)[nH]c1=O)OCC
inactive: dose: 100.0 mg/kg/injection, schedule: Q04DX003 (ip), vehicle: saline sonified 109 % of control | dose: 200.0 mg/kg/injection, schedule: Q04DX003 (ip), vehicle: saline sonified 96 % of control | dose: 400.0 mg/kg/injection, schedule: Q04DX003 (ip), vehicle: saline sonified 105 % of control

CCOC(=O)C(/C=N/C(N)=O)=C(\C)O
inactive: [1] 105 % of control | [12] 102 % of control | [2] 95 % of control | [13] 101 % of control | [3] 106 % of control | [14] 92 % of control

COc1ccc(CCCCI)cc1
inactive: dose: 100.0 mg/kg/injection, schedule: Q01DX001 (ip), vehicle: acetone 98 % of control | dose: 100.0 mg/kg/injection, schedule: Q04DX003 (ip), vehicle: acetone 93 % of control | dose: 200.0 mg/kg/injection, schedule: Q01DX001 (ip), vehicle: acetone 95 % of control | dose: 200.0 mg/kg/injection, schedule: Q04DX003 (ip), vehicle: acetone 94 % of control | dose: 400.0 mg/kg/injection, schedule: Q01DX001 (ip), vehicle: acetone 115 % of control | dose: 400.0 mg/kg/injection, schedule: Q04DX003 (ip), vehicle: acetone 95 % of control

Cc1nc2c(-c3ccccc3)nc(C)n2nc1C
inactive: [10] 111 % of control | [11] 108 % of control | dose: 400.0 mg/kg/injection, schedule: Q04DX002 (ip), vehicle: saline with Tween-80 92 % of control

CCNC(C)(C)C(=O)c1ccc(Cl)s1
inactive: [4] 96 % of control | [21] 100 % of control | [6] 96 % of control | [22] 100 % of control | [23] 98 % of control

CC(SC(C)c1ccccc1)c1ccccc1 (stereo not drawn)
inactive: [4] 93 % of control | [21] 101 % of control | [6] 91 % of control | [22] 106 % of control | [23] 97 % of control

CNC(=O)OCC1=CC(=O)C(C)=CC1=O
inactive: dose: 1.56 mg/kg/injection, schedule: Q01DX009 (ip), vehicle: gum acacia 96 % of control | dose: 3.12 mg/kg/injection, schedule: Q01DX009 (ip), vehicle: gum acacia 89 % of control | dose: 6.25 mg/kg/injection, schedule: Q01DX009 (ip), vehicle: gum acacia 89 % of control | dose: 12.5 mg/kg/injection, schedule: Q04DX003 (ip), vehicle: gum acacia 95 % of control | dose: 25.0 mg/kg/injection, schedule: Q04DX003 (ip), vehicle: gum acacia 103 % of control

CCCCCCCCN(C(=S)NC(=O)c1ccccc1)c1ccccc1
inactive: [12] 93 % of control | [13] 89 % of control | [14] 91 % of control

Cc1cccc(-c2nc(N)nc(N)n2)c1
inactive: dose: 75.0 mg/kg/injection, schedule: Q01DX001 (ip), vehicle: saline 106 % of control | dose: 150.0 mg/kg/injection, schedule: Q01DX001 (ip), vehicle: saline 104 % of control | dose: 300.0 mg/kg/injection, schedule: Q01DX001 (ip), vehicle: saline 101 % of control

Cc1ccc2nc(Cl)cc(=O)n2c1
inactive: [24] 97 % of control | [15] 97 % of control | [16] 97 % of control

CCCCCCC(C)NCCO (stereo not drawn)
inactive: dose: 5.0 mg/kg/injection, schedule: Q01DX001 (ip), vehicle: saline 97 % of control | dose: 10.0 mg/kg/injection, schedule: Q01DX001 (ip), vehicle: saline 106 % of control | dose: 20.0 mg/kg/injection, schedule: Q01DX001 (ip), vehicle: saline 96 % of control | dose: 40.0 mg/kg/injection, schedule: Q01DX001 (ip), vehicle: saline 94 % of control | dose: 80.0 mg/kg/injection, schedule: Q01DX001 (ip), vehicle: saline 100 % of control

CCNC(=S)NNc1ccccc1
inactive: [21] 100 % of control | [22] 96 % of control

COc1ccc(NC(=O)N(C)Cc2ccccc2Cl)cc1
inactive: [18] 96 % of control | [19] 110 % of control | [20] 104 % of control

NC(=O)C1C2CC3OC(=O)C1C3C2 (stereo not drawn)
inactive: [5] 93 % of control and 103 % of control | [7] 102 % of control and 100 % of control | [9] 96 % of control and 88 % of control

COc1ccc(N=Cc2ccccc2O)cc1
inactive: dose: 100.0 mg/kg/injection, schedule: Q04DX003 (ip), vehicle: other 100 % of control | dose: 200.0 mg/kg/injection, schedule: Q04DX003 (ip), vehicle: other 96 % of control | dose: 400.0 mg/kg/injection, schedule: Q04DX003 (ip), vehicle: other 98 % of control

COc1cc2c(cc1O)CCCC2=O
inactive: dose: 50.0 mg/kg/injection, schedule: Q01DX009 (ip), vehicle: saline with Tween-80 96 % of control | [4] 93 % of control | [6] 96 % of control

CC(=O)Nc1ccc2c(c1)Cc1cc(Cl)ccc1-2
inactive: [24] 105 % of control | [15] 100 % of control | [16] 103 % of control | [17] 105 % of control

c1ccc(CCN2COc3c(ccc4cccnc34)C2)cc1
inactive: [21] 102 % of control | [23] 90 % of control

Cc1cccc(NC(=S)N(C)C)c1
inactive: [4] 99 % of control | [6] 101 % of control | [8] 94 % of control
